Molecules are shown by their SMILES. Calls of active or inactive are those of the source. No cut-off for these calls is given here.

T1 sequence (O42275 whole entry): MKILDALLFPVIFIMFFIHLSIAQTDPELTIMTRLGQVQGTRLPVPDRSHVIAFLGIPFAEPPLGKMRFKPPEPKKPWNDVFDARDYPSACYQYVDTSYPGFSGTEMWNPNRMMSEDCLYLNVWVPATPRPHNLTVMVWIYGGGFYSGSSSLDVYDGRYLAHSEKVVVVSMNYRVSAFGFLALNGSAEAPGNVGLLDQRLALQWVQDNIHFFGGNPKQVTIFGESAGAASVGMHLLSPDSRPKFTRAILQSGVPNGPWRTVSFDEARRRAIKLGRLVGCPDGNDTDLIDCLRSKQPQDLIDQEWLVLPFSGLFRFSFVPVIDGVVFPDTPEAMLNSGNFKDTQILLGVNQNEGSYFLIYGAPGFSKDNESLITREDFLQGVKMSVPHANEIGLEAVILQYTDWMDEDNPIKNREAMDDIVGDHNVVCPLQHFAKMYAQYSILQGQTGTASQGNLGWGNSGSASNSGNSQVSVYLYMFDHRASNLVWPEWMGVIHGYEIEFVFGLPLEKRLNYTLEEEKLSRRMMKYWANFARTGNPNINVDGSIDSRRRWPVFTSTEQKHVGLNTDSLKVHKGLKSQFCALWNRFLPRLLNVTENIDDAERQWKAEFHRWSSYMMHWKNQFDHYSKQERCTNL

The target in one assay is Acetylcholinesterase (Electrophorus electricus) (UniProt O42275). Description: Ratio of compound IC50 to tacrine IC50 for Electrophorus electricus acetylcholinesterase.
Acetylcholinesterase (Electrophorus electricus), sequence (O42275 24-633 limits assumed): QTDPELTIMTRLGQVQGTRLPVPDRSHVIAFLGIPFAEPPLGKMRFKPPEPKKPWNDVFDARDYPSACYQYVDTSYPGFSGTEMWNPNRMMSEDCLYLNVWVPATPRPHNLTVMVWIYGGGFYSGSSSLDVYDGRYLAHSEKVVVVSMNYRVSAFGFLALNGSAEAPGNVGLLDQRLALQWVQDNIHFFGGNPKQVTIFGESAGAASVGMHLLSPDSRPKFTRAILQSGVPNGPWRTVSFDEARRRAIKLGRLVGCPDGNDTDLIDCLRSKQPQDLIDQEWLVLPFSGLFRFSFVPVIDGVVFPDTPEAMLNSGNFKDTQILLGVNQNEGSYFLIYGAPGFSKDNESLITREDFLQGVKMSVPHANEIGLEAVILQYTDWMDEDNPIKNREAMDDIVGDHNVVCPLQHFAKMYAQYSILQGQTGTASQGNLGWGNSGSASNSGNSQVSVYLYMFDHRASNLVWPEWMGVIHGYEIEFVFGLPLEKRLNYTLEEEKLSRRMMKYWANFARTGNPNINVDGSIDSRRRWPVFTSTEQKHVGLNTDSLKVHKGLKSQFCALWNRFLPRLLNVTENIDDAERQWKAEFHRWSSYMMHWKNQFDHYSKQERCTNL
Conditions: not given
As for `Nc1c2c(nc3c1C(c1ccc(O)cc1)c1c(ccc4ccccc14)O3)CCCC2` (racemic), the Ratio IC50 was 4.

Tested on in the next assay: not listed separately
Description: Inhibition of […]-induced intracellular Ca2+ uptake in bovine Chromaffin cells at 100 uM. The assay is classed as functional. Conditions: Bos taurus.
In general, inhibition refers to the drop in the measured response relative to a control, in per cent. With `CCOC(=O)C1=C(C)Oc2nc3c(c(N)c2C1c1ccc(OC)cc1)CCCC3` (centres undefined), at 100 µM the inhibition was 90%.

The next assay has as its target T1, Acetylcholinesterase (Electrophorus electricus, UniProt O42275).
Conditions: not given
What is called IC50 is the midpoint of a concentration-inhibition curve. High values mean weaker potency, low ones greater potency. Regarding `COc1ccccc1C1c2c(nc3c(c2N)CCCC3)Oc2ccc3ccccc3c21` (racemic), half-maximal inhibition (IC50) was put at 20 nM. That is a double-digit nanomolar value.
The same measure, in the same setting: as for `COc1ccc(C2c3c(nc4c(c3N)CCCC4)Oc3ccc4ccccc4c32)cc1` (racemic), the figure is 18 nM; as for `COc1cc(C2c3c(nc4c(c3N)CCCC4)Oc3ccc4ccccc4c32)cc(OC)c1OC` (racemic), 26 nM.
Still for that read-out and setting: as for `Nc1c2c(nc3c1C(c1ccc(O)cc1)c1c(ccc4ccccc14)O3)CCCC2` (racemic), the figure is 7 nM; as for `COc1cc(C2c3c(nc4c(c3N)CCCC4)Oc3ccc4ccccc4c32)ccc1O` (racemic), 28 nM.
Same read-out and setting: as for `Cc1ccc(C2c3c(nc4c(c3N)CCCC4)Oc3ccc4ccccc4c32)cc1` (racemic), the figure is 43 nM.
For `COc1ccc(C2c3c(nc4c(c3N)CCCC4)Oc3ccc4ccccc4c32)cc1OC` (racemic), the IC50 stood at 26 nM.
The same measure, in the same setting: next, `Nc1c2c(nc3c1C(c1ccc([N+](=O)[O-])cc1)c1c(ccc4ccccc14)O3)CCCC2` (racemic): 170 nM; `COc1cc(C2c3c(nc4c(c3N)CCC4)Oc3ccc4ccccc4c32)ccc1O` (racemic): 101 nM.
`COc1cccc(C2c3c(nc4c(c3N)CCCC4)Oc3ccc4ccccc4c32)c1` (racemic) came in with an IC50 of 16 nM.

The target of a further assay is Cholinesterase (Equus caballus, UniProt P81908).
Cholinesterase, sequence (P81908 whole entry): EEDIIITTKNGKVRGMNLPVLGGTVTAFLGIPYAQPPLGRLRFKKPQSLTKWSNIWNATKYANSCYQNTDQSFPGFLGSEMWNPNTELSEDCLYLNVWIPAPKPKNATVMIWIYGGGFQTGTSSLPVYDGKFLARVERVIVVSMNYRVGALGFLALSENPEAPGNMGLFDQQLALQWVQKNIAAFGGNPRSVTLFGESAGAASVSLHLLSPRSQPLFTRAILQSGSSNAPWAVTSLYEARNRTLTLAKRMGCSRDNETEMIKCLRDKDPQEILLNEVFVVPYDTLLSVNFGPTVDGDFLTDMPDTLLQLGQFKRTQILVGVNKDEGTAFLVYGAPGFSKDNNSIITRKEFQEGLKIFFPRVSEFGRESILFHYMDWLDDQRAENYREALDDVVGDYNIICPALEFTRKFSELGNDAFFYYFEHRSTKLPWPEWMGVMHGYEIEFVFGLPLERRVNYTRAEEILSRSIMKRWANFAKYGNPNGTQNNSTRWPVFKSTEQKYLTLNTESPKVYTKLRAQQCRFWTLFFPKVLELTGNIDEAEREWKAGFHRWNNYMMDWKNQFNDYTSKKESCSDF
Conditions: not given
Compound `COc1ccccc1C1c2c(nc3c(c2N)CCCC3)Oc2ccc3ccccc3c21` (racemic) yielded a 50% inhibitory concentration (IC50) above 10000 nM.
The same measure, in the same setting: as for `COc1ccc(C2c3c(nc4c(c3N)CCCC4)Oc3ccc4ccccc4c32)cc1` (racemic), the figure is above 10000 nM; as for `COc1cc(C2c3c(nc4c(c3N)CCCC4)Oc3ccc4ccccc4c32)cc(OC)c1OC` (racemic), above 10000 nM.
On to `Nc1c2c(nc3c1C(c1ccc(O)cc1)c1c(ccc4ccccc14)O3)CCCC2` (racemic), for which the IC50 was above 10000 nM.
Regarding `COc1cc(C2c3c(nc4c(c3N)CCCC4)Oc3ccc4ccccc4c32)ccc1O` (racemic), the 50% inhibitory concentration (IC50) is above 10000 nM.
On the same count and under the same terms, as for `Cc1ccc(C2c3c(nc4c(c3N)CCCC4)Oc3ccc4ccccc4c32)cc1` (racemic), the figure is above 10000 nM; as for `COc1ccc(C2c3c(nc4c(c3N)CCCC4)Oc3ccc4ccccc4c32)cc1OC` (racemic), above 10000 nM.
Same read-out and setting: next, `Nc1c2c(nc3c1C(c1ccc([N+](=O)[O-])cc1)c1c(ccc4ccccc14)O3)CCCC2` (racemic): above 10000 nM.
In the case of `COc1cc(C2c3c(nc4c(c3N)CCC4)Oc3ccc4ccccc4c32)ccc1O` (racemic), the IC50 is above 10000 nM.
Same read-out and setting: as for `COc1cccc(C2c3c(nc4c(c3N)CCCC4)Oc3ccc4ccccc4c32)c1` (racemic), the figure is above 10000 nM.

Another assay has as its system SH-SY5Y. Description: Neuroprotective activity in human SH-SY5Y cells by MTT assay.
Conditions: not given
It is filed as functional. For orientation: Tetrazolium assays rely on reduction of a dye to a coloured formazan, in cell work by metabolically active cells.
Consider `COc1ccccc1C1c2c(nc3c(c2N)CCCC3)Oc2ccc3ccccc3c21` (racemic), for which the Activity is below 17%.
The same measure, in the same setting: next, `COc1ccc(C2c3c(nc4c(c3N)CCCC4)Oc3ccc4ccccc4c32)cc1` (racemic): below 17%; `COc1cc(C2c3c(nc4c(c3N)CCCC4)Oc3ccc4ccccc4c32)cc(OC)c1OC` (racemic): below 17%.
The compound `Nc1c2c(nc3c1C(c1ccc(O)cc1)c1c(ccc4ccccc14)O3)CCCC2` (racemic) displayed an Activity below 17%.
On the same count and under the same terms, next, `COc1cc(C2c3c(nc4c(c3N)CCCC4)Oc3ccc4ccccc4c32)ccc1O` (racemic): below 17%.
`Cc1ccc(C2c3c(nc4c(c3N)CCCC4)Oc3ccc4ccccc4c32)cc1` (racemic) had an Activity below 17%.
Regarding `COc1ccc(C2c3c(nc4c(c3N)CCCC4)Oc3ccc4ccccc4c32)cc1OC` (racemic), the Activity is recorded as below 17%.
Same read-out and setting: as for `Nc1c2c(nc3c1C(c1ccc([N+](=O)[O-])cc1)c1c(ccc4ccccc14)O3)CCCC2` (racemic), the figure is below 17%.
Still for that read-out and setting: next, `COc1cc(C2c3c(nc4c(c3N)CCC4)Oc3ccc4ccccc4c32)ccc1O` (racemic): below 17%; `COc1cccc(C2c3c(nc4c(c3N)CCCC4)Oc3ccc4ccccc4c32)c1` (racemic): below 17%.

A further assay concerns the target T2, Acetylcholinesterase (Bos taurus) (UniProt P23795).
T2 sequence (whole entry): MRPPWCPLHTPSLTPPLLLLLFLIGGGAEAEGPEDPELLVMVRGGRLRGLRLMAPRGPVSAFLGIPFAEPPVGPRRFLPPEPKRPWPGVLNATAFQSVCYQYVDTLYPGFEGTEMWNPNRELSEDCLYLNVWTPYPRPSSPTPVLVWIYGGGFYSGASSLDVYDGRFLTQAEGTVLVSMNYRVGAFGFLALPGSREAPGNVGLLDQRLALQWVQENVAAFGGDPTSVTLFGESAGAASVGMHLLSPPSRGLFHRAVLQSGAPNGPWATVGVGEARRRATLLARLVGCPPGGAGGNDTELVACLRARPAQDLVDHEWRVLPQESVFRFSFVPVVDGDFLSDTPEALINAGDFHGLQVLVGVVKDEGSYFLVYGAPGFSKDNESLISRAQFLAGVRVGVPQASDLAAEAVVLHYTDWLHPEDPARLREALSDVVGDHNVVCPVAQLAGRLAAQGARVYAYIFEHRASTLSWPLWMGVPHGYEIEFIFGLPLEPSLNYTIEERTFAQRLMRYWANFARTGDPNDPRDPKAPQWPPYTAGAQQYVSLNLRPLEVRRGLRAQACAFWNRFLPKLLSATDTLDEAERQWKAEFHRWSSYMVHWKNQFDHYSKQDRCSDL
Description: Displacement of propidium iodide from peripheral anionic site of bovine erythrocyte AChE at 0.1 to 3 uM after 20 hrs by fluorescence plate reader.
Conditions: not given
On to `Nc1c2c(nc3c1C(c1ccc(O)cc1)c1c(ccc4ccccc14)O3)CCCC2` (racemic), for which the result was inactive.

The target of the next assay is T1, Acetylcholinesterase. Description: Mixed inhibition of Electrophorus electricus acetylcholinesterase using […] substrate by Ellman's method.
Conditions: not given
In general terms: In Ellman's method for cholinesterases, released thiocholine reacts with DTNB.
Broadly, the Ki is the equilibrium dissociation constant of an inhibitor or competing ligand from its target. A lower Ki goes with a stronger hold on the target. `Nc1c2c(nc3c1C(c1ccc(O)cc1)c1c(ccc4ccccc14)O3)CCCC2` (racemic) had a Ki of 5 nM.

A further assay is filed under the species Bos taurus. Description: Inhibition of K(+)-induced intracellular Ca2+ uptake in bovine Chromaffin cells at 100 uM. The assay is classed as functional, cell-based.
Conditions: not given
`COc1ccccc1C1c2c(nc3c(c2N)CCCC3)Oc2ccc3ccccc3c21` (racemic): the outcome was inactive.
Same read-out and setting: next, `COc1ccc(C2c3c(nc4c(c3N)CCCC4)Oc3ccc4ccccc4c32)cc1` (racemic): “inactive”.
The same measure, in the same setting: as for `COc1cc(C2c3c(nc4c(c3N)CCCC4)Oc3ccc4ccccc4c32)cc(OC)c1OC` (racemic), the entry is “inactive”; as for `Nc1c2c(nc3c1C(c1ccc(O)cc1)c1c(ccc4ccccc14)O3)CCCC2` (racemic), “inactive”; as for `COc1cc(C2c3c(nc4c(c3N)CCCC4)Oc3ccc4ccccc4c32)ccc1O` (racemic), “inactive”.
Same read-out and setting: next, `Cc1ccc(C2c3c(nc4c(c3N)CCCC4)Oc3ccc4ccccc4c32)cc1` (racemic): “inactive”; `COc1ccc(C2c3c(nc4c(c3N)CCCC4)Oc3ccc4ccccc4c32)cc1OC` (racemic): “inactive”.
In the case of `Nc1c2c(nc3c1C(c1ccc([N+](=O)[O-])cc1)c1c(ccc4ccccc14)O3)CCCC2` (racemic), the outcome was inactive.
The same measure, in the same setting: as for `COc1cc(C2c3c(nc4c(c3N)CCC4)Oc3ccc4ccccc4c32)ccc1O` (racemic), the entry is “inactive”; as for `COc1cccc(C2c3c(nc4c(c3N)CCCC4)Oc3ccc4ccccc4c32)c1` (racemic), “inactive”.
